Experimental data published in US5690906A (The Trustees of the University of Pennsylvania, priority 1995, dated 1997).
Like-named read-outs stand apart in the source and are kept apart here. Values belong to the molecule of their own block, whether it stands above or below them.

How the values were obtained:
[1] = In-vivo biodistribution in rats; design: species or system rat; Brain uptake: unit not given here; conditions: for Brain uptake: table; for tissue uptake at 2 min / tissue uptake at 1 h / tissue uptake at 0.5 h: rat
Procedure: In-vivo biodistribution studies were performed in rats^27 with the two hydroxylated radioligands: [^123 I]-7-OH-DPAT and [^123 I]-7-OH-PIPAT in rats. Concerning [^123 I]-7-OH-DPAT rats were killed either two minutes or thirty minutes post injection and the data are reported in Table 5. […] On the contrary, [^123 I]-7-OH-PIPAT presented a very high brain uptake: 11.812, 9,458 and 5.433% dose/gram of tissue at 2, 30 and 60 min. respectively (See Table 6). […] However, the brain regions, rich in D3 receptors such as Calleja island and olfactory tubercle need to be more deeply investigated.

[2] = molecular target: T1, D2 dopamine receptor (Rattus norvegicus, UniProt P61169); assay: Inhibition of [^125 I]NCQ298 binding to D2 dopamine receptors expressed in Sf9 cells; conditions: for HC D2: Table 4, Hill coefficient
T1 construct: made in house; host or cells: Sf9 insect cells infected with recombinant baculovirus (AcMNPVrD2L or AcMNPVrD2S), membrane homogenates

[3] = molecular target: T2, D3 dopamine receptor (Rattus norvegicus, UniProt P19020); assay: Inhibition of [^125 I]NCQ298 binding to D3 dopamine receptors expressed in Sf9 cells; conditions: for HC D3: Table 4, Hill coefficient; for Ratio D2/D3: Ki(D2)/Ki(D3)
T2 construct: made in house; host or cells: Sf9 insect cells infected with recombinant baculovirus AcMNPVrD3, membrane homogenates
Procedure: The construction of pVL1393-rD3 was previously described. […] An aliquot of membranes was used for radioligand binding.
Membranes from AcMNPV-rD3 infected Sf9 cells were prepared. […] Assays were incubated at 37° C. for 20 min. then filtered and washed as described above.

[4] = Table 4 and its discussion, [^125 I]-NCQ298 0.05 nM, 37° C., 20 min, read-out: Ki D2

T1 sequence (P61169 whole entry): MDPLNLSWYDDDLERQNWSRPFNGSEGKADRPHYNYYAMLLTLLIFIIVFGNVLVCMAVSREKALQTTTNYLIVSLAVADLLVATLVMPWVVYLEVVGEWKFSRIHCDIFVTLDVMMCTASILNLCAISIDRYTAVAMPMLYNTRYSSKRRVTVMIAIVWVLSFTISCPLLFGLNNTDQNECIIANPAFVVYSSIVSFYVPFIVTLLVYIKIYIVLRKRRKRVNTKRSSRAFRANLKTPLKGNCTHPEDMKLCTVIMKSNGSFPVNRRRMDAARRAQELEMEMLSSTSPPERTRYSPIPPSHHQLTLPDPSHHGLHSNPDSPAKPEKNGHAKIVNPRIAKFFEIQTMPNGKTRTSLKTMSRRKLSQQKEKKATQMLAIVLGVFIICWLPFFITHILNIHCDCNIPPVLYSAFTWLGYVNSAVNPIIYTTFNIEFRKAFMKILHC
T2 sequence (P19020 whole entry): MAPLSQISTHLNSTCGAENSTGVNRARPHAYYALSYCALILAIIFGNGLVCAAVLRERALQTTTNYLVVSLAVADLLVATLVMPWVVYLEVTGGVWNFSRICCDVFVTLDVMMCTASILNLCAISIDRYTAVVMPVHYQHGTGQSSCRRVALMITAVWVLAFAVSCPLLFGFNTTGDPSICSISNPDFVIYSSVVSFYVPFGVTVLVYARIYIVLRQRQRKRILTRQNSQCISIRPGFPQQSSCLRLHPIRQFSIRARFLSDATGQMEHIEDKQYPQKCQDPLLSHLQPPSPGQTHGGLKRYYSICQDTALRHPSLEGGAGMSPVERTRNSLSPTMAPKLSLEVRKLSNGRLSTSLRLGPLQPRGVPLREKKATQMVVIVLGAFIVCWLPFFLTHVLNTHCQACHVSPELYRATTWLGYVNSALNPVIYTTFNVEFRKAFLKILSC

SMILES: CCCN(C/C=C/[123I])C1CCc2ccc(O)cc2C1 (stereo not shown) [[^123 I]-7-OH-PIPAT]
Blood uptake ([1]; 2 min): 2.621 ± 0.298
Heart uptake ([1]; 2 min): 1.780 ± 0.231
Kidney uptake ([1]; 2 min): 5.887 ± 1.088
Liver uptake ([1]; 2 min): 9.687 ± 3.302
Lung uptake ([1]; 2 min): 5.394 ± 0.589
Muscle uptake ([1]; 2 min): 33.199 ± 11.64
Skin uptake ([1]; 2 min): 8.816 ± 1.656
Spleen uptake ([1]; 2 min): 0.449 ± 0.161
Thyroid uptake ([1]; 2 min): 0.174 ± 0.012
Brain uptake ([1]; 2 min): 2.612 ± 0.498
Blood uptake ([1]; 30 min): 0.785 ± 0.089
Heart uptake ([1]; 30 min): 0.203 ± 0.054
Kidney uptake ([1]; 30 min): 0.978 ± 0.276
Liver uptake ([1]; 30 min): 3.573 ± 0.569
Lung uptake ([1]; 30 min): 0.768 ± 0.146
Muscle uptake ([1]; 30 min): 23.546 ± 8.469
Skin uptake ([1]; 30 min): 6.962 ± 0.362
Spleen uptake ([1]; 30 min): 0.284 ± 0.011
Thyroid uptake ([1]; 30 min): 0.045 ± 0.007
Brain uptake ([1]; 30 min): 0.660 ± 0.096
Blood uptake ([1]; 60 min): 0.742 ± 0.075
Heart uptake ([1]; 60 min): 0.100 ± 0.010
Kidney uptake ([1]; 60 min): 1.042 ± 0.114
Liver uptake ([1]; 60 min): 2.335 ± 1.391
Lung uptake ([1]; 60 min): 0.437 ± 0.038
Muscle uptake ([1]; 60 min): 12.882 ± 3.927
Skin uptake ([1]; 60 min): 6.148 ± 0.922
Spleen uptake ([1]; 60 min): 0.180 ± 0.023
Thyroid uptake ([1]; 60 min): 0.096 ± 0.067
Brain uptake ([1]; 60 min): 0.321 ± 0.037
tissue uptake at 2 min ([1]; brain, 2 min, read-out: brain uptake): 11.8 %ID/g
tissue uptake at 1 h ([1]; brain, 60 min, read-out: brain uptake): 5.43 %ID/g
tissue uptake at 2 min ([1]; cerebellum, 2 min, read-out: Regional uptake, Cerebellum): 1.61 ± 0.403 %ID/g
tissue uptake at 0.5 h ([1]; cerebellum, 30 min, read-out: Regional uptake, Cerebellum): 0.379 ± 0.009 %ID/g
tissue uptake at 1 h ([1]; cerebellum, 60 min, read-out: Regional uptake, Cerebellum): 0.215 ± 0.025 %ID/g
tissue uptake at 2 min ([1]; cortex, 2 min, read-out: Regional uptake, Cortex): 2 ± 0.038 %ID/g
tissue uptake at 0.5 h ([1]; cortex, 30 min, read-out: Regional uptake, Cortex): 0.265 ± 0.086 %ID/g
tissue uptake at 1 h ([1]; cortex, 60 min, read-out: Regional uptake, Cortex): 0.206 ± 0.022 %ID/g
tissue uptake at 2 min ([1]; hippocampus, 2 min, read-out: Regional uptake, Hippocampus): 1.63 ± 0.222 %ID/g
tissue uptake at 0.5 h ([1]; hippocampus, 30 min, read-out: Regional uptake, Hippocampus): 0.261 ± 0.064 %ID/g
tissue uptake at 1 h ([1]; hippocampus, 60 min, read-out: Regional uptake, Hippocampus): 0.216 ± 0.02 %ID/g
tissue uptake at 2 min ([1]; hypothalamus, 2 min, read-out: Regional uptake, Hypothalamus): 1.83 ± 0.233 %ID/g
tissue uptake at 0.5 h ([1]; hypothalamus, 30 min, read-out: Regional uptake, Hypothalamus): 0.251 ± 0.009 %ID/g
tissue uptake at 1 h ([1]; hypothalamus, 60 min, read-out: Regional uptake, Hypothalamus): 0.254 ± 0.033 %ID/g
tissue uptake at 2 min ([1]; rem, 2 min, read-out: Regional uptake, REM): 1.67 ± 0.224 %ID/g
tissue uptake at 0.5 h ([1]; rem, 30 min, read-out: Regional uptake, REM): 0.281 ± 0.076 %ID/g
tissue uptake at 1 h ([1]; rem, 60 min, read-out: Regional uptake, REM): 0.218 ± 0.025 %ID/g
tissue uptake at 2 min ([1]; striatum, 2 min, read-out: Regional uptake, Striatum): 1.62 ± 0.236 %ID/g
tissue uptake at 0.5 h ([1]; striatum, 30 min, read-out: Regional uptake, Striatum): 0.263 ± 0.08 %ID/g
tissue uptake at 1 h ([1]; striatum, 60 min, read-out: Regional uptake, Striatum): 0.212 ± 0.029 %ID/g
regional uptake in the different area of the brain ([1]; rats, brain): no regional uptake was observed

SMILES: C#CCN(CCC)C1CCc2ccc(O)cc2C1 (stereo not shown) [7-OH-PPAT, 7Hydroxy-2-(-Propargyl-N-n-Propyl)-Aminotetralin]
affinity for the D2 receptor [2]: three-fold less active than 7-OH-DPAT
HC D2 [2]: 0.99
Ki [2, 4]: 378 ± 45 nM
Ki [3]: 9.2 ± 0.6 nM
affinity / selectivity for the D3 receptor [3]: three-fold less active than 7-OH-DPAT
HC D3 [3]: 0.80
Ratio D2/D3 ([3]; Table 4 and its discussion): 41.1

SMILES: CCCN(CCC)C1CCc2ccc(O)c(I)c2C1 (stereo not shown) [8-I-7-OH-DPAT, 7Hydroxy-8-Iodo-2-N,N-n-Dipropylaminotetralin]
HC D2 [2]: 0.92
Ki [2, 4]: 353 ± 31 nM
Ki [3]: 21.3 ± 2.9 nM
HC D3 [3]: 0.85
Ratio D2/D3 ([3]; Table 4 and its discussion): 16.6

SMILES: CCCNC1CCc2ccc(OC)cc2C1 (stereo not shown) [7-MeO-MPAT, 7Methoxy-2-N-n-Propylaminotetralin]
Ki [2]: 5176 ± 0.96 nM
HC D2 [2]: 0.96
Ki [3]: 1310 ± 249 nM
HC D3 [3]: 0.97
Ratio D2/D3 ([3]; Table 4 and its discussion): 4.0

SMILES: CCCN(CCC)C1CCc2ccc(O)c([123I])c2C1 (stereo not shown) [[^123 I]-7-OH-DPAT, reference compound]
Brain uptake ([1]; 2 min): 1.55 ± 0.21
Brain uptake ([1]; 30 min): 0.54 ± 0.13
tissue uptake at 2 min ([1]; in vivo, 2 min, read-out: Regional uptake, Cerebellum): 0.81 ± 0.14 %ID/g
tissue uptake at 2 min ([1]; in vivo, 2 min, read-out: Regional uptake, Cortex): 1.1 ± 0.12 %ID/g
tissue uptake at 2 min ([1]; in vivo, 2 min, read-out: Regional uptake, Hippocampus): 0.78 ± 0.09 %ID/g
tissue uptake at 2 min ([1]; in vivo, 2 min, read-out: Regional uptake, Striatum): 0.85 ± 0.07 %ID/g
tissue uptake at 0.5 h ([1]; in vivo, 30 min, read-out: Regional uptake, Cerebellum): 0.25 ± 0.09 %ID/g
tissue uptake at 0.5 h ([1]; in vivo, 30 min, read-out: Regional uptake, Cortex): 0.29 ± 0.12 %ID/g
tissue uptake at 0.5 h ([1]; in vivo, 30 min, read-out: Regional uptake, Hippocampus): 0.31 ± 0.07 %ID/g
tissue uptake at 0.5 h ([1]; in vivo, 30 min, read-out: Regional uptake, Striatum): 0.31 ± 0.08 %ID/g
brain washout ([1]; rats, brain): rapidly washed out of the brain
regional uptake in the different area of the brain ([1]; rats, brain): no regional uptake was observed

HC D2 [2]: 0.78
Ki [2, 4]: 5880 ± 471 nM
HC D3 [3]: 0.80
Ratio D2/D3 ([3]; Table 4 and its discussion): 3.1
Ki ([3]; Table 4 and its discussion, [^125 I]-NCQ298 0.1 nM, 37° C., 20 min, read-out: Ki D3): 1870 ± 224 nM
SMILES: COc1ccc2c(c1)CC(NCc1ccccc1)CC2 (stereo not shown) [7-MeO-BAT, 7Methoxy-2-N-Benzylaminotetralin]

SMILES: CCCN(C/C=C/I)C1CCc2ccc(O)cc2C1 (stereo not drawn) [trans-7-OH-PIPAT]
Ki ([2]; Table 2, ± SE, [^125 I]NCQ298, Sf9 cells, read-out: Ki D2): 265 ± 36 nM
HC D2 [2]: 0.96
Ki [2, 4]: 265 ± 48 nM
